The values that follow come from US9127005B2, “Isoform selective phospholipase D inhibitors” (Vanderbilt University, priority 2009, dated 2015).

A word on the IC50: it is the concentration that inhibits the measured activity by half.

A value given as a limit tells only on which side of the number the result lay.

Experiment [1] addresses T1, PLD1 (Homo sapiens (Human), UniProt Q13393). As to the kind of experiment: Cellular CRCs: PLD1 response in Calu-1 cells. Format: cell-based. From the text: In some aspects PLD activity in the cell is mediated predominately by PLD1. Thus, in some aspects, the cell is the human non-small-cell lung cancer (NSCLC) cell line Calu-1. In some aspects, the cell has been stimulated to activate PLD1 in the cell. For example, the cell can be stimulated with phorbol 12-myristate 13-acetate (PMA).

In experiment [2] the target is T2, PLD2 (Homo sapiens (Human), UniProt O14939). As to the kind of experiment: Exogenous CRCs: in vitro PLD2 response. Format: biochemical. The text has this: (§1) The screening method can comprise providing a sample comprising a phosholipid and a PLD under conditions that allow the hydrolysis of the phospholipids to a phosphatidic acid, contacting the sample with a candidate agent, measuring enzymatic activity, comparing the enzymatic activity to a control, a decrease in enzymatic activity compared to the control identifying an agent that inhibits the PLD.
(§2) In some aspects, the PLD is a myr-Aff-1-stimulated mammalian human PLD1 or human PLD2.

Experiment [3] addresses T2, PLD2. The experiment can be described thus: Cellular CRCs: PLD2 response in HEK293gfpPLD2 (293-PLD2) cells. Format: cell-based. Conditions: for Fold Selective: cellular CRCs, selectivity for PLD2 (293-PLD2) over PLD1 (Calu-1). The text has this: In some aspects PLD activity in the cell is mediated predominately by PLD2. Thus, in some aspects, the cell stably overexpresses recombinant PLD2. For example, the cell can be a HEK293 cell stably overexpressing green florescent protein (GFP)-tagged PLD2.

The target of experiment [4] is T1, PLD1. As to the kind of experiment: Exogenous CRCs: in vitro PLD1 response. It is filed as biochemical.
Text: as §1, §2

Where [5] appears, read: Calu-1 cells (PLD1), read-out: Cellular CRCs Calu-1 IC50.
The mark [6] stands for this setting: exogenous (in vitro) PLD2, read-out: Exogenous CRCs PLD2 IC50.
[7] abbreviates: HEK293 cells overexpressing GFP-tagged PLD2, read-out: Cellular CRCs 293-PLD2 IC50.

T1 sequence (Q13393 whole entry): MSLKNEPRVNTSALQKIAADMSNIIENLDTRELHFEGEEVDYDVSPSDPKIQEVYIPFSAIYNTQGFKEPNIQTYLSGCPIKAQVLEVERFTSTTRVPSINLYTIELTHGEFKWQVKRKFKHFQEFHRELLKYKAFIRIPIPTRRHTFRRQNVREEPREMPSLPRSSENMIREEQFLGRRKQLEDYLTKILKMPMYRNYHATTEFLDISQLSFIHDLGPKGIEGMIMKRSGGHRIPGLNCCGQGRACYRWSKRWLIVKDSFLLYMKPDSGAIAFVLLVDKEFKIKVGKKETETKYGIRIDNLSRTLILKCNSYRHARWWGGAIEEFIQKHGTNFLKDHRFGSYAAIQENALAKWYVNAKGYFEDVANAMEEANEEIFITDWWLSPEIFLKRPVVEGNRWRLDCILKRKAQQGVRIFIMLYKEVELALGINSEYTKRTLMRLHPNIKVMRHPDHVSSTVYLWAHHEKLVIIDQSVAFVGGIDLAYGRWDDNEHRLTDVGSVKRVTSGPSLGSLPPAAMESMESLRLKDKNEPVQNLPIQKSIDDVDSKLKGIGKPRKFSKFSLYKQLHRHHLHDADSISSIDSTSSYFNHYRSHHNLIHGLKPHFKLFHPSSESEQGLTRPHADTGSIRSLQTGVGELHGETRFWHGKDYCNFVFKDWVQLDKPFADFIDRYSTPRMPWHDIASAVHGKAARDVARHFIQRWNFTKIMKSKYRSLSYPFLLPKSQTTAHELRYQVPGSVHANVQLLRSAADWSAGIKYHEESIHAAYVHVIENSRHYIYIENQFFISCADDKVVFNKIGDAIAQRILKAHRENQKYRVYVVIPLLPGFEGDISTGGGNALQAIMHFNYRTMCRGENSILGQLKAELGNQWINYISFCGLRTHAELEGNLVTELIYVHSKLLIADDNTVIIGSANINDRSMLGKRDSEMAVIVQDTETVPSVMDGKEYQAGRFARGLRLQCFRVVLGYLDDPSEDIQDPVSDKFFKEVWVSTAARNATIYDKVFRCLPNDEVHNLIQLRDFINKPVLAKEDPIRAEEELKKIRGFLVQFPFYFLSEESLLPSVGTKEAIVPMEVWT
T2 sequence (O14939 whole entry): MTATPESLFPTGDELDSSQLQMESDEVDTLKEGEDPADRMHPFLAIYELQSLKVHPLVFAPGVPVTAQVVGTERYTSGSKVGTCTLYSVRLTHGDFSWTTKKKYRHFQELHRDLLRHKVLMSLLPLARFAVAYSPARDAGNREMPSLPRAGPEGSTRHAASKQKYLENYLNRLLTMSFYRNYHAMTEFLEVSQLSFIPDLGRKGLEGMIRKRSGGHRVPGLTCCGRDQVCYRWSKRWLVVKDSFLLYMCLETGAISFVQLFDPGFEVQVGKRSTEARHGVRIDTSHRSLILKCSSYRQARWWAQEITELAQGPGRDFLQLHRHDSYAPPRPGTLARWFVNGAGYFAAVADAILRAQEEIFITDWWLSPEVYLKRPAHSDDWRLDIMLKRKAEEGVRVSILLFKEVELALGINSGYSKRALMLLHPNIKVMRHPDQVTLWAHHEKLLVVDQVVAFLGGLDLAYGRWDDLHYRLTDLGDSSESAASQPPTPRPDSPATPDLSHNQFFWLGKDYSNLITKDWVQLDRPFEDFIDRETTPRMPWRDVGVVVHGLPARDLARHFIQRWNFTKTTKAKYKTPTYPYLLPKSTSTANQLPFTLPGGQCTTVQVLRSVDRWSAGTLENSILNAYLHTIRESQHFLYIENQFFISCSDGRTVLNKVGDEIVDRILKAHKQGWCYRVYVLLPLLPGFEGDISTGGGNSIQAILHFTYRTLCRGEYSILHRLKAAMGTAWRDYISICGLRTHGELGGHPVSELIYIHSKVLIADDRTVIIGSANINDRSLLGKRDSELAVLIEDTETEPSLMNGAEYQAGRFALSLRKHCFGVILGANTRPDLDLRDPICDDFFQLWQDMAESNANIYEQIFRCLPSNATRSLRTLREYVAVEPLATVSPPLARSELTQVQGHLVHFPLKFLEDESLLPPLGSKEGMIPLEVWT

As for “4-fluoro-N-((S)-1- ((S)-4-(4- fluorophenyl)-1-oxo- 2,8- diazaspiro[4.5]decan- 8-yl)propan-2- yl)benzamide 2,2,2- trifluoroacetate [P2B]”, the IC50 on PLD1 [1] (setting [5]) was found to be 1.7 µM; at PLD2 [2] (setting [6]) it was 9.44 µM; on PLD2 [3] (setting [7]), 2.8 µM; on PLD1 [4] it was 5.15 µM.
On to `C[C@@H](CN1CCC2(CC1)C(=O)NC[C@H]2c1ccc(F)cc1)NC(=O)c1ccc2ccccc2c1` [P1Q, N-((S)-1-((S)-4-(4-fluorophenyl)-1-oxo-2,8-diazaspiro[4.5]decan-8-yl)propan-2-yl)-2-naphthamide 2,2,2-trifluoroacetate], for which the IC50 at PLD1 [1] (setting [5]) was 0.093 µM; at PLD2 [3] (setting [7]), 0.54 µM.
`O=C(NCCN1CCC2(CC1)C(=O)NC[C@@H]2c1ccc(F)cc1)c1cc2ccccc2[nH]1.O=C(O)C(F)(F)F` [P23, (R)-N-(2-(4-(4-fluorophenyl)-1-oxo-2,8-diazaspiro[4.5]decan-8-yl)ethyl)-1H-indole-2-carboxamide 2,2,2-trifluoroacetate] displayed an IC50 on PLD1 [1] of 0.021 µM. Besides, on PLD2 [3], inhibition was half-maximal at 0.0025 µM (IC50) and the “Fold Selective” value amounted to 8 fold PLD2.
Regarding `C[C@@H](CN1CCC2(CC1)C(=O)NC[C@@H]2c1ccc(F)cc1)NC(=O)c1ccc(F)cc1` [NGH, 4-fluoro-N-((S)-1-((R)-4-(4-fluorophenyl)-1-oxo-2,8-diazaspiro[4.5]deean-8-yl)propan-2-yl)benzamide 2,2,2-txifluoroacetate], the IC50 on PLD1 [1] was 0.25 µM; against PLD2 [2], 2.24 µM; against PLD2 [3], 0.21 µM.
Turning to `O=C(NCCN1CCC2(CC1)C(=O)NC[C@H]2c1ccc(F)cc1)c1ccc2ccccc2c1.O=C(O)C(F)(F)F` [P1D], the results for the IC50 on PLD1 [1] (setting [5]) and at PLD2 [3] (setting [7]) were 3.7 µM and 0.22 µM, respectively. The “Fold Selective” value on PLD2 [3] was 17-Fol PLD2 fold.
Turning to `C[C@@H](CN1CCC2(CC1)C(=O)NC[C@@H]2c1ccc(F)cc1)NC(=O)C#Cc1ccccc1` [NGF, N—((S)-1-((R)-4-(4-Fluorophenyl)-1-oxo-2,8-diazaspiro[4.5]decan-8-yl)propan-2-yl)-3-phenylpropiolamide 2,2,2-trifluoroacetate], the values for the IC50 at PLD1 [1] (setting [5]) and at PLD2 [3] were 0.016 µM and 0.15 µM, respectively.
Consider `C[C@@H](CN1CCC2(CC1)C(=O)NCC2c1ccc(F)cc1)NC(=O)C1C[C@H]1c1ccccc1` (stereo partly drawn) [NGQ, trans-N-((S)-1-((S)-4-(4-fluorophenyl)-1-oxo-2,8-diazaspiro[4.5]decan-8-yl)propan-2-yl)-2-phenylcyclopropane-carboxamide 2,2,2-trifluoroacetate], for which the figures for the IC50 on PLD1 [1] (setting [5]) and on PLD2 [3] (setting [7]) were 3 µM and greater than 20 µM, respectively.
On to `O=C(NCCN1CCC2(CC1)C(=O)NC[C@@H]2c1ccc(F)cc1)C1C[C@H]1c1ccccc1.O=C(O)C(F)(F)F` (stereo partly drawn) [P1E, trans-N-(2-((R)-4-(4-fluorophenyl)-1-oxo-2,8-diazaspiro[4.5]decan-8-yl)ethyl)-2-phenylcyclopropane-carboxamide 2,2,2-trifluoroacetate], for which the figures for the IC50 at PLD1 [1] (setting [5]) and on PLD2 [3] (setting [7]) were 6.1 µM and 0.76 µM, respectively. Moreover, the “Fold Selective” value at PLD2 [3] was 8-fold PLD2.
Turning to `C[C@@H](CN1CCC2(CC1)C(=O)NC[C@H]2c1ccc(F)cc1)NC(=O)C#Cc1ccccc1` [NJ5, N-((S)-1-((S)-4-(4-fluorophenyl)-1-oxo-2,8-diazaspiro[4.5]decan-8-yl)propan-2-yl)-3-phenylpropiolamide 2,2,2-trifluoroacetate], the figures for the IC50 at PLD1 [1] (setting [5]) and on PLD2 [3] were 0.32 µM and 4 µM, respectively.
On the same counts, the results for `C[C@@H](CN1CCC2(CC1)C(=O)NC[C@H]2c1ccc(F)cc1)NC(=O)c1cc2ccccc2[nH]1` [NG3, N-((S)-1-((S)-4-(4-fluorophenyl)-1-oxo-2,8-diazaspiro[4.5]decan-8-yl)propan-2-yl)-1H-indole-2-carboxamide 2,2,2-trifluoroacetate] are 0.016 µM and 0.14 µM.
At PLD1 [1], `O=C(C#Cc1ccccc1)NCCN1CCC2(CC1)C(=O)NC[C@@H]2c1ccc(F)cc1.O=C(O)C(F)(F)F` [P0Q, (R)-N-(2-(4-(4-fluorophenyl)-1-oxo-2,8-diazaspiro[4.5]decan-8-yl)ethyl)-3-phenylpropiolamide 2,2,2-trifluoroacetate] returned an IC50 of 1.2 µM. Besides, on PLD2 [3], the IC50 is 0.07 µM and the “Fold Selective” value was 17-fold PLD2.
With `O=C(NCCN1CCC2(CC1)C(=O)NC[C@H]2c1ccc(F)cc1)c1ccc2ccccc2c1.O=C(O)C(F)(F)F` [P22, (S)-N-(2-(4-(4-fluorophenyl)-1-oxo-2,8-diazaspiro[4.5]decan-8-yl)ethyl)-2-naphthamide 2,2,2-trifluoroacetate], the IC50 is 0.82 µM on PLD1 [1] (setting [5]), 0.073 µM at PLD2 [2] (setting [6]), 0.026 µM at PLD2 [3] (setting [7]) and 3.9 µM against PLD1 [4]. For the same compound, the “Fold Selective” value on PLD2 [3] (trifluoroacetate) is reported as 32-fold PLD2.
Take `C[C@@H](CN1CCC2(CC1)C(=O)NC[C@@H]2c1ccc(F)cc1)NC(=O)C1C[C@H]1c1ccccc1` (stereo partly drawn) [P0A, trans-N-((S)-1-((R)-4-(4-fluorophenyl)-1-oxo-2,8-diazaspiro[4.5]decan-8-yl)propan-2-yl)-2-phenylcyclopropane-carboxamide 2,2,2-trifluoroacetate]: the IC50 at PLD1 [1] (setting [5]) is 0.6 µM; on PLD2 [3] (setting [7]), 14 µM.
With `C[C@@H](CN1CCC2(CC1)C(=O)NC[C@@H]2c1ccc(F)cc1)NC(=O)c1cc2ccccc2[nH]1` [P1G, N-((S)-l-((R)-4-(4-fluorophenyl)-1-oxo-2,8-diazaspiro[4.5]decan-8-yl)propan-2-yl)-1H-indole-2-carboxamide 2,2,2-trifluoroacetate], the IC50 on PLD1 [1] was determined as 0.001 µM; against PLD2 [3] it was 0.012 µM.
